# Earlier results in patent US9045248B2 (priority 2007, dated 2015).
# Target: influenza virus RNP (Influenza A virus, UniProt P03428)
# Conditions: cited from earlier work
# influenza virus RNP, sequence (P03428 whole entry, looked up): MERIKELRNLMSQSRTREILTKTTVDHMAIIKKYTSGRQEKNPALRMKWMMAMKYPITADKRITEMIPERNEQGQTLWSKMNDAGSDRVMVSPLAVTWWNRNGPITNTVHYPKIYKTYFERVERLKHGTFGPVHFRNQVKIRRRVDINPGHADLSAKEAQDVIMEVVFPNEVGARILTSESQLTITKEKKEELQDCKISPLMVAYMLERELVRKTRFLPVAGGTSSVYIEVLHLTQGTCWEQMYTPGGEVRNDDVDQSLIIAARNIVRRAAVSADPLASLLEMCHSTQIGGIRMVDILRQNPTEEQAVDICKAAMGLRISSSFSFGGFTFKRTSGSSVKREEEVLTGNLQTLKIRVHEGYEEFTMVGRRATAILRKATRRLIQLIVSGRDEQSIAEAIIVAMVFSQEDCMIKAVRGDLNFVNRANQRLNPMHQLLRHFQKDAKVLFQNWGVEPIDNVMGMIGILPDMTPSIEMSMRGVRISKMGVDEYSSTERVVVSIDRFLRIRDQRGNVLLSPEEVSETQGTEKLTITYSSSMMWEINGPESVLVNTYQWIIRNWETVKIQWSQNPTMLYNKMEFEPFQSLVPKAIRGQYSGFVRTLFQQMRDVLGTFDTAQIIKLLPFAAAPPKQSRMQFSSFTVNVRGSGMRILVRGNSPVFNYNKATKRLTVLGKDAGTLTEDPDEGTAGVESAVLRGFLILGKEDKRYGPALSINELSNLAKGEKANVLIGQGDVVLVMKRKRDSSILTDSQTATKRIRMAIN
row,Compound,IC50
1,Nc1nc2c(ncn2[C@@H]2O[C@H](COP(=O)(O)OP(=O)(O)OP(=O)(O)O)[C@@H](O)[C@H]2O)c(=O)[nH]1 [GTP],550 µM
2,"C[n+]1cn([C@@H]2O[C@H](COP(=O)(O)OP(=O)(O)OP(=O)(O)O)[C@@H](O)[C@H]2O)c2nc(N)[nH]c(=O)c21 [m^7GTP, 7-methyl-guanosine triphosphate]",113 µM
